These results are taken from PubChem BioAssay (NCI).

What all share (assay): NCI anticancer screen, dose series, 48 h
The subject of test [1] is ACHN renal.
Test [2] deals with MALME-3M melanoma.
Test [3] relates to RPMI-8226 leukemia.
The test system of test [4] is NCI-H23 lung.
In test [5] the test system is CCRF-CEM leukemia.
Test [6] deals with U251 CNS.
In test [7] the test system is 786-0 renal.
Test [8] has as its system SN12C renal.

Molecules are shown by their SMILES.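 Where inhibition never reached the appropriate level, the endpoint shown equals the highest concentration tested. Otherwise, values were interpolated linearly from a five-concentration, 48-hour dose response in 96-well plates. The concentration for 50% growth inhibition is given as GI50. TGI marks complete inhibition of growth.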

As to `O=C(NNC(=O)/C(=C/c1cccc([N+](=O)[O-])c1)NC(=O)c1ccccc1)Nc1ccc(Cl)cc1`, the TGI in test [1] was 31.8 µM; in test [2] it was 30 µM; in test [3] it was 38.9 µM; in test [4] it was 30.3 µM; in test [5] it was 31.2 µM; in test [6], 28.4 µM. Further, the TGI in test [7] worked out at 29.1 µM; in test [8] it was 28.2 µM.
`Cc1cc(NCCCCCCCCNc2cc(C)nc3cc(N(C)C)ccc23)c2ccc(N(C)C)cc2n1`: the TGI in test [1] was determined as 32.7 µM; in test [3], 17.2 µM; in test [4] it was 15.2 µM; in test [5], 49.1 µM; in test [6], 9.45 µM; in test [7], 21 µM. Besides, in test [8], the TGI is 21.5 µM.
For the compound `O=S1(=O)CC#CC[C@@H](CO)[C@@H](CO)CC#CC1`, the TGI in test [1] was above 100 µM; in test [2], 68.2 µM; in test [4], above 100 µM; in test [5], 98.1 µM; in test [6] it was above 100 µM; in test [7], above 100 µM. In test [8], the TGI was above 100 µM.
Consider `CCCCCCCCCCCCCC(=O)OCC1OC(=O)C(O)C1O` (stereo not drawn), for which the TGI in test [1], in test [2], in test [3], in test [4], in test [5] and in test [6] was above 100 µM in each case. Moreover, the TGI in test [7] and in test [8] was above 100 µM in each case.
Regarding `COC(=O)/C(=C1\OC(=O)C(c2ccc(Cl)cc2)=C1O)c1ccc(Cl)cc1`, the TGI in test [1] was 79.2 µM; in test [2], 55.7 µM; in test [3] it was 55.2 µM; in test [4], 40.3 µM; in test [5], above 100 µM; in test [6], above 100 µM. Moreover, the TGI in test [7] and in test [8] was above 100 µM each time.
Consider `O=S1c2ccccc2N=C(c2cccs2)CC1c1ccccc1O` (stereo not drawn), for which the TGI in test [1], in test [2], in test [3], in test [4], in test [5] and in test [7] was above 100 µM in each case. The compound also came in with a TGI in test [8] above 100 µM.
As for `Clc1cc2ns[s+]c2cc1Cl`, the TGI in test [1], in test [2], in test [3], in test [4], in test [5] and in test [6] was above 100 µM each time. Further, the TGI in test [7] and in test [8] was above 100 µM each time.
For `O=c1[nH]c(C2CCCCC2)nc2ccc(Cl)cc12`, the TGI in test [1], in test [2], in test [3], in test [4], in test [6] and in test [7] was above 100 µM in each case. In test [8], this compound had a TGI above 100 µM.
For `CCn1c(C)nc([N+](=O)[O-])c1Sc1ncc[nH]1`, the TGI in test [1] was above 100 µM; in test [2], 93.8 µM; in test [3], above 100 µM; in test [4], 99.6 µM; in test [5] it was 58.7 µM; in test [6], above 100 µM. The TGI in test [7] and in test [8] was above 100 µM each time.
In the case of `COc1ccc(NC(=O)CC2SC(=Nc3ccc(Cl)cc3C)NC2=O)c([N+](=O)[O-])c1` (stereo not drawn), the TGI in test [1], in test [2], in test [3], in test [4], in test [5] and in test [6] was above 100 µM each time. Also, the TGI in test [7] and in test [8] was above 100 µM throughout.
Regarding `Cc1ccccc1C1SCc2nc3ccccc3n21` (stereo not drawn), the TGI in test [1], in test [2], in test [3], in test [4], in test [5] and in test [6] was above 100 µM in each case. The TGI in test [7] and in test [8] was above 100 µM in each case.
Turning to `CC1=NN(c2ccccc2)C(=O)C1N=Nc1ccc(Br)cc1C` (stereo not drawn), the TGI in test [1], in test [2], in test [3], in test [4], in test [5] and in test [6] was above 100 µM in each case. In addition, the TGI in test [7] and in test [8] was above 100 µM each time.
On to `Cc1c2cc[n+](C)cc2c(C)c2c1[nH]c1ccc(OC(C)(C)C)cc12`, for which the TGI in test [1], in test [2], in test [3], in test [4], in test [5] and in test [6] was above 100 µM throughout. Further, the TGI in test [7] and in test [8] was above 100 µM throughout.
With `O=Cc1cc2sc(C=O)cc2s1`, the TGI in test [2], in test [3], in test [4], in test [5], in test [6] and in test [7] was above 100 µM each time. This compound also yielded a TGI in test [8] above 100 µM.
Take `O=S(=O)(O)c1ccc([Se][Se]c2ccc(S(=O)(=O)O)cc2)cc1`: the TGI in test [1], in test [2], in test [3], in test [4], in test [5] and in test [6] was above 100 µM throughout. For the same compound, the TGI in test [7] and in test [8] was above 100 µM each time.
For the compound `O=C1/C(=C/c2ccc(C(=O)O)cc2)CNC/C1=C\c1ccc(C(=O)O)cc1`, the TGI in test [1], in test [2], in test [3], in test [4], in test [5] and in test [6] was above 100 µM throughout. Further, the TGI in test [7] and in test [8] was above 100 µM each time.
For `COc1ccc(C2[C@@H](Cl)C(=O)N2c2ccc(OC)cc2)cc1` (stereo partly drawn), the TGI in test [1], in test [2], in test [3], in test [4], in test [5] and in test [6] was above 100 µM each time. Further, the TGI in test [7] and in test [8] was above 100 µM throughout.
Take `C/C(COc1ccccc1)=N\NC(N)=S`: the TGI in test [1], in test [2], in test [3], in test [4], in test [5] and in test [6] was above 100 µM each time. Moreover, the TGI in test [7] and in test [8] was above 100 µM throughout.
For the compound `CCCCCCCC(=O)[O-].N.N.N.N.N.[Co+3].[O-][Cl+3]([O-])([O-])[O-]`, the GI50 in test [1], in test [2], in test [3], in test [4], in test [5] and in test [6] was above 100 µM throughout. Moreover, the GI50 in test [7] and in test [8] was above 100 µM in each case. Moreover, the TGI in test [1], in test [2], in test [3], in test [4], in test [5] and in test [6] was above 100 µM in each case. For the same compound, the TGI in test [7] and in test [8] was above 100 µM each time.
Consider `NC1=NN(c2ccccc2)C(=O)C1/C(=N\NC(=O)c1cc2ccccc2cc1O)C(=O)Nc1ccc(Cl)c(Cl)c1` (stereo not drawn), for which the TGI was above 100 µM in test [1]; 97.6 µM in test [2]; above 100 µM in test [3]; 63.5 µM in test [4]; 57.7 µM in test [5]; above 100 µM in test [6]. Further, the TGI in test [7] and in test [8] was above 100 µM each time.
Turning to `CC1O[C@@H]2CCCCC(=O)[C@]2(C)[C@H]1C` (stereo partly drawn), the TGI in test [1], in test [2], in test [3], in test [5], in test [6] and in test [7] was above 100 µM each time. In test [8], the TGI was above 100 µM.
`CN1C(=O)CC(CC(=O)C2CCCCC2=O)CC1=O` (stereo not drawn): the TGI in test [1], in test [2], in test [3], in test [4], in test [5] and in test [6] was above 100 µM in each case. In addition, the TGI in test [7] and in test [8] was above 100 µM in each case.
As for `OCC1OC(NO)C(O)C(O)C1O` (stereo not drawn), the TGI in test [1], in test [2], in test [3], in test [4], in test [5] and in test [6] was above 100 µM throughout. Besides, the TGI in test [7] and in test [8] was above 100 µM in each case.
Consider `CCCCCCCN(CCCCCCC)C(=N)c1ccc(OC)c2ccccc12`, for which the GI50 in test [1] is 1.32 µM; in test [4] it was 1.1 µM; in test [5] it was 1.76 µM; in test [6], 1.39 µM; in test [7], 1.31 µM; in test [8], 1.24 µM. The TGI in test [1] came out at 2.81 µM; in test [4], 2.53 µM; in test [5] it was 3.63 µM; in test [6] it was 2.81 µM; in test [7], 2.95 µM; in test [8] it was 2.76 µM.
